# According to patent US20260146062A1, “COMPOUNDS AND METHODS FOR TREATING DISEASES CAUSED BY VIRUSES AND BACTERIA” (The Trustees of Indiana University, priority 2022, published 2026):
# System: SARS-CoV2 virus
# Test: Inhibition of Viral Replication (plaque count)
# Assay type: cell-based
# Details: with increased concentration of inhibitor
smiles,measurement,value
CC(C)C[C@H](NC(=O)c1cc2ccccc2[nH]1)C(=O)NC(C=O)Cc1ccc(F)cc1 (stereo partly shown) [Compound 112],inhibition ability (FIG. 6),increased inhibition ability of Compound No. 112 with increased concentration
